Results reported in publication PMC8282797, “Strictly regulated agonist-dependent activation of AMPA-R is the key characteristic of TAK-653 for robust synaptic responses and cognitive improvement” (Scientific Reports, 2021).
Where two headings read alike, the source gives them in different places.

Assays:
AMPA-R = assay: Whole-cell patch clamp recording using rat primary hippocampal neurons; format: cell-based; design: key to Single effect on AMPA-R currents: -: No effect or slight effect; +: Potent; ++: Very potent; details: for Single effect on AMPA-R currents: summary grade
Protocol: Whole-cell patch clamp recording using primary neurons between 11 and 20 days in vitro was performed as previously described. Patch electrodes with tip resistances ranging from 3 to 5 MΩ were filled with an intracellular solution containing: 135 mM CsCl, 1 mM MgCl2, 10 mM HEPES, 10 mM EGTA, 4 mM MgATP, and 0.3 mM Na2GTP, adjusted to pH7.3 with CsOH (osmolality 275–295 mosm/L). The extracellular solution contained: 140 mM NaCl, 4 mM KCl, 2 mM CaCl2, 1 mM MgCl2, 10 mM HEPES, 5 mM NaHCO3, 10 mM D( +)-glucose, and 0.001 mM TTX, adjusted to pH7.4 with NaOH (osmolality 300–315 mosm/L). All experiments were carried out at room temperature. Neurons were voltage-clamped at − 80 mV. Steady-state inward currents were evoked by the application of AMPA and AMPA potentiator via Y-tube perfusion system. Signals were recorded using a Multiclamp 700B amplifier (Molecular Devices, LLC, Orleans Drive Sunnyvale, CA), digitized using a Digidata 1440A interface board, filtered between 2 kHz, sampled at 10 kHz, and analyzed with pClamp10 software. Details are described in the Supplementary Information.
Whole-cell patch clamp technique was used for recording current from cultured rat hippocampal neurons between 11-20 days in vitro. Patch electrodes with tip resistances ranging from 3 to 5 MΩ were filled with an intracellular solution containing: 135 mM CsCl, 1 mM MgCl2, 10 mM HEPES, 10 mM EGTA, 4 mM Mg-ATP, 0.3 mM Na2-GTP, adjusted to pH7.3 with CsOH (osmolality 275-295 mosm/L). The extracellular solution contained: 140 mM NaCl, 4 mM KCl, 2 mM CaCl2, 1 mM MgCl2, 10 mM HEPES, 5 mM NaHCO3, 10 mM D(+)-glucose, and 0.001 mM TTX, adjusted to pH7.4 with NaOH (osmolality 300-315 mosm/L). All experiments were carried out at room temperature and performed using an Axopatch-1D amplifier with pCLAMP 9 software (Molecular Devices, LLC, Orleans Drive Sunnyvale, CA), low-pass filtered at 2 kHz, and stored on the computer hard-disk for off-line analysis. Neurons were voltage-clamped at –80mV. Steady-state inward currents were evoked by the application of AMPA and AMPA potentiator via Y-tube perfusion system. AMPA-R potentiator was applied 20 s prior to 10-s AMPA stimulus. The current at all drug concentrations tested was normalized by the steady-state current induced by 1 μM AMPA. In the absence of AMPA, the maximum current during 60-s application of AMPA-R potentiator was normalized by the steady-state current induced by 100 μM AMPA.

[1] = tested on: MK-801-induced working memory deficit in rats; assay: Radial arm maze (RAM) test, MK-801-induced working memory deficit; format: in vivo, rat; details: for RAM (effective doses): summary
Protocol: RAM tests were performed using 9-week-old male Long-Evans rats as previously described with a minor modification. Each arm was 50 cm long, 10 cm wide and 40 cm high, and the maze was elevated 50 cm above the floor. Long-Evans rats were food-restricted to 85% of free-feeding body weight throughout the experimental period. Rats were well trained to collect pellets placed on the edge of each arm. The learning criterion for the testing session was defined as 2 errors or fewer for 2 consecutive days. In the testing session, each rat was placed on the maze facing the fixed arm at the start of the trial. The entry of rats into each arm was recorded in sequence until all pellets in the 8 arms were consumed, or 5 min had elapsed. […] Thirty min after dosing of vehicle or MK-801, rats were placed on the maze. Details are described in the Supplementary Information.
The experiment was performed using 9-week-old male Long-Evans rats as described previously (Zajaczkowski et al., 1996) with a minor modification. Each arm was 50 cm long, 10 cm wide and 40 cm high, and the maze was elevated 50 cm above the floor. After being fasted for 24 h, male Long-Evans rats were food-restricted to 85% of free-feeding body weight on the first day of exposure to the maze and throughout the experimental period. The experiment consists of two sessions, training and testing session. In the training session, rats were habituated to the maze and then trained. Reinforcement consisted of 3 food pellets (45 mg each) in the food cup was used. On the first day of habituation to the maze, reinforcements were placed near the entrance and at the mid-point of each arm. Three rats were placed on the maze at one time and allowed to explore and consume the pellets for 8 min. On the second day of habituation, each rat was placed on the maze and allowed 5 min to consume the pellets placed at the mid-point and in the food cup at the end of each arm. From the third day, reinforcement was placed in the food cup at the end of each arm. Rats were well trained to collect pellets placed on the edge of each arm. The learning criterion for the testing session was defined as 2 errors or less for two consecutive days. In the previous day of the testing session, baseline level of performance was qualified to confirm that rats completed collecting all pellets placed in the 8 arms with two errors or less. In the testing session, each rat was placed on the maze facing away from the experimenter and facing the fixed arm at the start of the trial. The entry of rats into each arm was recorded in sequence. Rats were allowed to explore until all pellets in the 8 arms were consumed, or 5 min had elapsed. Entry into an arm previously chosen was counted as an error. […] […] Thirty min after dosing of vehicle or MK-801, rats were placed on the maze. Data were indicated as the mean ± SEM in the testing session.

## Cc1onc(O)c1CC(N)C(=O)O (stereo not drawn) [AMPA, alpha-amino-3-hydroxy-5-methyl-4-isoxazole-propionic acid]
AMPA-R; single application, read-out: EC50, increase of AMPA-R-mediated currents
  EC50: 45 µM
AMPA-R
  Single effect on AMPA-R currents: ++
[1]; 0.1 to 3 mg/kg, i.p., MK-801 0.08 mg/kg, s.c.
  Working memory in the RAM test: neither LY451646 at 0.03 to 1 mg/kg, p.o. nor AMPA at 0.1 to 3 mg/kg, i.p. improve
[1]
  RAM (effective doses): No effect

## CC1=CN2CCS(=O)(=O)N=C2C(c2ccc(OC3CCCCC3)cc2)=N1 [TAK-653, 9-[4-(Cyclohexyloxy)phenyl]-7-methyl-3,4-dihydropyrazino[2,1-c][1,2,4]thiadiazine 2,2-dioxide]
AMPA-R
  Potency relative to LY451646 in potentiation of AMPA-elicited currents (times less potent): 2.3 times
  Single effect on AMPA-R currents: ─
AMPA-R; absence of AMPA, % of AMPA (100 μM)-induced steady-state response
  AMPA-R currents, Agonistic effect @30 μM: 1.7%
AMPA-R; in the presence of 1 μM AMPA, read-out: AMPA-R currents, Potentiation EC50
  EC50: 4.4 µM
[1]; 0.1, 0.3, 3 and 10 mg/kg, p.o., MK-801 0.08 mg/kg, s.c.
  MK-801-induced deficits in RAM task: significantly ameliorated
[1]
  RAM (effective doses): Effective (0.1, 0.3, 3, 10)
